Patent US20230398130A1, “METHODS AND COMPOSITIONS FOR DIFFERENTIATING STEM CELLS” (Massachusetts Institute of Technology, priority 2020, published 2023)

Assays:
[1] = test system: ISC-enriched organoids; assay: Primary screen, 384-well 2.5-D organoid differentiation (ENR+CD, 6 days): basal lysozyme secretion (LYZ.NS); assay type: cell-based, murine; conditions: for Dose.FC.LYZ.NS: FC vs plate median; for SSMD.LYZ.NS: strictly standardized mean difference
Source text: (§1) High-throughput screening.

[2] = test system: ISC-enriched organoids; assay: Primary screen, 384-well 2.5-D organoid differentiation (ENR+CD, 6 days): carbachol-induced lysozyme secretion (LYZ.S); assay type: cell-based, murine; conditions: primary screen; for Dose.FC.LYZ.S: FC vs plate median; for Z.LYZ.S: standard z score; for SSMD.LYZ.S: strictly standardized mean difference
Source text: as §1

[3] = test system: ISC-enriched organoids; assay: Primary screen, 384-well 2.5-D organoid differentiation (ENR+CD, 6 days, Target Selective Inhibitor Library, vs whole-plate median): ATP (CellTiter-Glo 3D, CTG); conditions: for Dose.FC.CTG: FC vs plate median; for SSMD.CTG: strictly standardized mean difference
[4] = Dose 0.08 uM, primary screen, standard z score
[5] = Dose 0.40 uM, primary screen, standard z score
[6] = Dose 2.00 uM, primary screen, standard z score
[7] = Dose 10.00 uM, primary screen, standard z score
[8] = primary screen, 1st of the 4 dose lines of the treatment (dose not given)
[9] = primary screen, 2nd of the 4 dose lines of the treatment (dose not given)
[10] = primary screen, 3rd of the 4 dose lines of the treatment (dose not given)
[11] = primary screen, 4th of the 4 dose lines of the treatment (dose not given)
[12] = 1st of the 4 dose lines of the treatment (dose not given)
[13] = 2nd of the 4 dose lines of the treatment (dose not given)
[14] = 3rd of the 4 dose lines of the treatment (dose not given)
[15] = 4th of the 4 dose lines of the treatment (dose not given)
[16] = primary screen, dose 0.08 uM, ENR+CD 6 days
[17] = primary screen, dose 0.08 uM, standard z score of FC
[18] = primary screen, dose 0.40 uM, ENR+CD 6 days
[19] = primary screen, dose 0.40 uM, standard z score of FC
[20] = primary screen, dose 2.00 uM, ENR+CD 6 days
[21] = primary screen, dose 2.00 uM, standard z score of FC
[22] = primary screen, dose 10.00 uM, ENR+CD 6 days
[23] = primary screen, dose 10.00 uM, standard z score of FC
[24] = Dose 0.08 uM, standard z score of FC
[25] = Dose 0.40 uM, standard z score of FC
[26] = Dose 2.00 uM, standard z score of FC
[27] = Dose 10.00 uM, standard z score of FC

Structure (SMILES): Cc1cccc(-c2nn3c(c2-c2ccnc4ccc(C(N)=O)cc24)CCC3)n1 [LY2157299]
- Dose.FC.LYZ.NS ([1]; Dose 0.08 uM, primary screen): 0.227 log 2 fold change
- Z.LYZ.NS [1, 4]: 1.973
- Dose.FC.LYZ.NS ([1]; Dose 0.40 uM, primary screen): 0.140 log 2 fold change
- Z.LYZ.NS [1, 5]: 1.221
- Dose.FC.LYZ.NS ([1]; Dose 2.00 uM, primary screen): 0.092 log 2 fold change
- Z.LYZ.NS [1, 6]: 0.799
- Dose.FC.LYZ.NS ([1]; Dose 10.00 uM, primary screen): 0.162 log 2 fold change
- Z.LYZ.NS [1, 7]: 1.408
- SSMD.LYZ.NS [1, 8]: 0.656
- SSMD.LYZ.NS [1, 9]: 0.737
- SSMD.LYZ.NS [1, 10]: 0.827
- SSMD.LYZ.NS [1, 11]: 1.243
- Dose.FC.LYZ.S ([2]; Dose 0.08 uM): 0.187 log 2 fold change
- Dose.FC.LYZ.S ([2]; Dose 0.40 uM): 0.199 log 2 fold change
- Dose.FC.LYZ.S ([2]; Dose 2.00 uM): 0.113 log 2 fold change
- Dose.FC.LYZ.S ([2]; Dose 10.00 uM): 0.223 log 2 fold change
- Z.LYZ.S [2, 12]: 1.209
- Z.LYZ.S [2, 13]: 1.287
- Z.LYZ.S [2, 14]: 0.731
- Z.LYZ.S [2, 15]: 1.441
- SSMD.LYZ.S [2, 12]: 1.145
- SSMD.LYZ.S [2, 13]: 1.157
- SSMD.LYZ.S [2, 14]: 0.808
- SSMD.LYZ.S [2, 15]: 1.219
- Dose.FC.CTG ([3]; Dose 0.08 uM, primary screen): 0.091 log 2 fold change
- Z.CTG [3, 4]: 0.218
- Dose.FC.CTG ([3]; Dose 0.40 uM, primary screen): 0.137 log 2 fold change
- Z.CTG [3, 5]: 0.328
- Dose.FC.CTG ([3]; Dose 2.00 uM, primary screen): 0.017 log 2 fold change
- Z.CTG [3, 6]: 0.041
- Dose.FC.CTG ([3]; Dose 10.00 uM, primary screen): 0.095 log 2 fold change
- Z.CTG [3, 7]: 0.226
- SSMD.CTG [3, 8]: 0.343
- SSMD.CTG [3, 9]: 0.369
- SSMD.CTG [3, 10]: 0.048
- SSMD.CTG [3, 11]: 0.314

Structure (SMILES): O=C(O)c1cccc(-c2noc(-c3ccccc3F)n2)c1 [Ataluren (PTC124)]
- Dose.FC.LYZ.NS [1, 16]: 0.029 log 2 fold change
- Z.LYZ.NS [1, 17]: 0.253
- Dose.FC.LYZ.NS [1, 18]: 0.042 log 2 fold change
- Z.LYZ.NS [1, 19]: 0.362
- Dose.FC.LYZ.NS [1, 20]: 0.131 log 2 fold change
- Z.LYZ.NS [1, 21]: 1.140
- Dose.FC.LYZ.NS [1, 22]: 0.009 log 2 fold change
- Z.LYZ.NS [1, 23]: 0.077
- Dose.FC.LYZ.S ([2]; dose 0.08 uM, ENR+CD 6 days): 0.051 log 2 fold change
- Dose.FC.LYZ.S ([2]; dose 0.40 uM, ENR+CD 6 days): 0.034 log 2 fold change
- Dose.FC.LYZ.S ([2]; dose 2.00 uM, ENR+CD 6 days): 0.058 log 2 fold change
- Dose.FC.LYZ.S ([2]; dose 10.00 uM, ENR+CD 6 days): 0.005 log 2 fold change
- Dose.FC.CTG [3, 16]: 0.267 log 2 fold change
- Z.CTG [3, 17]: 0.639
- Dose.FC.CTG [3, 18]: −0.340 log 2 fold change
- Z.CTG [3, 19]: −0.813
- Dose.FC.CTG [3, 20]: −0.042 log 2 fold change
- Z.CTG [3, 21]: −0.100
- Dose.FC.CTG [3, 22]: 0.006 log 2 fold change
- Z.CTG [3, 23]: 0.013

Structure (SMILES): C#Cc1cccc(Nc2ncnc3cc4c(cc23)OCCOCCOCCO4)c1 [Icotinib]
- SSMD.LYZ.NS [1, 8]: 0.227
- SSMD.LYZ.NS [1, 9]: −0.710
- SSMD.LYZ.NS [1, 10]: −1.321
- SSMD.LYZ.NS [1, 11]: −2.654
- Z.LYZ.S [2, 12]: 0.609
- Z.LYZ.S [2, 13]: −0.583
- Z.LYZ.S [2, 14]: −1.572
- Z.LYZ.S [2, 15]: −2.708
- SSMD.LYZ.S [2, 12]: 0.689
- SSMD.LYZ.S [2, 13]: −0.544
- SSMD.LYZ.S [2, 14]: −1.726
- SSMD.LYZ.S [2, 15]: −1.917
- Z.CTG [3, 4]: −0.047
- Z.CTG [3, 5]: −0.146
- Z.CTG [3, 6]: −0.970
- Z.CTG [3, 7]: −2.552
- SSMD.CTG [3, 8]: −0.065
- SSMD.CTG [3, 9]: −0.162
- SSMD.CTG [3, 10]: −0.865
- SSMD.CTG [3, 11]: −3.189

Structure (SMILES): O=C(NNc1ccccc1)c1ccncc1 [PluriSIn #1 (NSC 14613)]
- Dose.FC.LYZ.NS ([1]; Dose 0.08 uM, primary screen): 0.083 log 2 fold change
- Z.LYZ.NS [1, 24]: 0.720
- Dose.FC.LYZ.NS ([1]; Dose 0.40 uM, primary screen): 0.004 log 2 fold change
- Z.LYZ.NS [1, 25]: 0.039
- Dose.FC.LYZ.NS ([1]; Dose 2.00 uM, primary screen): −0.107 log 2 fold change
- Z.LYZ.NS [1, 26]: −0.929
- Dose.FC.LYZ.NS ([1]; Dose 10.00 uM, primary screen): −0.284 log 2 fold change
- Z.LYZ.NS [1, 27]: −2.475
- Dose.FC.LYZ.S ([2]; Dose 0.08 uM): 0.057 log 2 fold change
- Dose.FC.LYZ.S ([2]; Dose 0.40 uM): −0.007 log 2 fold change
- Dose.FC.LYZ.S ([2]; Dose 2.00 uM): −0.133 log 2 fold change
- Dose.FC.LYZ.S ([2]; Dose 10.00 uM): −0.372 log 2 fold change
- Dose.FC.CTG ([3]; Dose 0.08 uM, primary screen): −0.146 log 2 fold change
- Z.CTG [3, 24]: −0.349
- Dose.FC.CTG ([3]; Dose 0.40 uM, primary screen): −0.095 log 2 fold change
- Z.CTG [3, 25]: −0.226
- Dose.FC.CTG ([3]; Dose 2.00 uM, primary screen): −0.433 log 2 fold change
- Z.CTG [3, 26]: −1.035
- Dose.FC.CTG ([3]; Dose 10.00 uM, primary screen): −0.853 log 2 fold change
- Z.CTG [3, 27]: −2.038
